system: biofilms formed in a paper machine; assay: Inactivation of biofilms pre-grown in situ on sampler pegs; re-growth of new biofilm in the culturing step, safranin staining, visual evaluation; type: cell-based; settings: biofilm grown 68 h in clear filtrate silo of neutral fine paper machine at 52° C.; treatment 1 to 50 ppm (active substance), stagnant 52° C., 2 h; culturing in R2-broth 250 rpm, 52° C., 17 h; safranin, evaluated visually
Source text: In this experiment one embodiment of the sampler device of the invention is used to illustrate the method of the invention for determining the effect of several anti-biofilm agents in inactivation of biofilms formed in a paper machine.
In this embodiment the sampler device comprises 12 stainless steel pegs fixed from one end on a stainless steel lid. The lid with the pegs is presented in FIG. 1 together with a treatment plate with 12 wells adapted to receive the pegs when the lid is placed on the plate. Suitably the lid was designed to be complementary with the commercially available 12-well polystyrene plates.
Three sampler lids are immersed in the clear filtrate silo of a neutral fine paper machine and allowed to hang immersed in said filtrate at the temperature of 52° C. of the process water, for 68 h. Then the samplers are removed, rinsed once with sterilized tap water, and each lid is placed on a 12-well treatment plate so that the pegs with biofilms formed in situ in the process on the surface thereof are immersed in the treatment solution within the wells, each peg in one well, while being supported at the one end by the lid.
Each well of a treatment plate contains 3.5 ml of sterilized tap water alone (reference samples) or 3.5 ml of sterilized tap water together with an anti-biofilm agent at a concentration of 1 to 50 ppm (active substance). The maximum volume of the wells is used so that almost the whole length of the pegs will be exposed to the anti-biofilm agents (the treatment solution). The tested anti-biofilm agents are BCDMH (Bromo-chloro-5,5-dimethyl hydantoine), a mixture of 5-chloro-2-methyl-4-isothiazolin-3-one and 2-methyl-4-isothiazolin-3-one, THPS (tetrakis(hydroxy-methyl)phosphomiumsulphate, DBNPA (2,2-dibromo-2-cyanoacetamide), glutar-aldehyde, MBT (methylene-bis(thiocyanate)), BNPD (bromo-2-nitropropan-1,3-diol), all of which are commercially available.
The anti-biofilm treatment step is carried out by incubating the plates with the lid thereon stagnant at 52° C. for 2 h. After the treatment step the lids are removed from the plate and rinsed three times with sterilized tap water and then placed on the 12-well culturing plates, which are similar to the treatment plates, but the wells contain 2.5 ml of sterile R2-broth (Difco). The culturing plates (plate+lid with the pegs immersed in the wells) are shaken at 250 rpm, at 52° C., for 17 h.
Finally, the pegs and growth media are removed from the wells, the wells are rinsed once with tap water and the microbes adhered on the walls of the wells are stained with safranin. The amount of biofilm produced by the microbes that survived alive through the treatment step with anti-biofilm agents is evaluated visually.

Structure (SMILES)	formation of new biofilm during the culturing step after treatment of the biofilm on the pegs
O=CCCCC=O [glutaraldehyde]	no new biofilm is formed
O=[N+]([O-])C(Br)(CO)CO [BNPD, bromo-2-nitropropan-1,3-diol]	still capable to form new biofilm
N#CC(Br)(Br)C(N)=O [DBNPA, 2,2-dibromo-2-cyanoacetamide]	no new biofilm is formed
O=S(=O)([O-])[O-].OC[P+](CO)(CO)CO.OC[P+](CO)(CO)CO [THPS, tetrakis(hydroxy-methyl)phosphomiumsulphate]	no new biofilm is formed
N#CSCSC#N [MBT, methylene-bis(thiocyanate)]	still capable to form new biofilm
CC1(C)C(=O)N(Br)C(=O)N1Cl [BCDMH, Bromo-chloro-5,5-dimethyl hydantoine]	no new biofilm is formed

same assay, conditions: treatment 2 h at 52° C.; culturing 17 h at 52° C. in R2-broth; concentration as active substance

Structure (SMILES)	lowest concentration of anti-biofilm agent achieving prevention of re-growth of new biofilm in the culturing step
N#CC(Br)(Br)C(N)=O [DBNPA, 2,2-dibromo-2-cyanoacetamide]	5 ppm

Source: patent US7829305B2, “Method for monitoring the presence of biofilmforming microorganisms in paper industry” (Kemira Oyj, priority 2003, dated 2010)
